Experiments:
Format in all cases: functional
A549 [1] = assay: Percent growth inhibition of A-549 human lung adenocarcinoma at 10e-6 M compound concentration in standard MTT assay
A549 [2] = assay: Percent growth inhibition of A-549 human lung adenocarcinoma at 10e-7 M compound concentration in standard MTT assay
P388 [3] = assay: Percent growth inhibition of P388 mouse leukemia at 10e-6 M compound concentration in standard MTT assay
P388 [4] = assay: Percent growth inhibition of P388 mouse leukemia at 10e-7 M compound concentration in standard MTT assay
P388 [5] = assay: Percent growth inhibition of P388 mouse leukemia at 10e-8 M compound concentration in standard MTT assay
A549 [6] = assay: Percent growth inhibition of A-549 human lung adenocarcinoma at 10e-8 M compound concentration in standard MTT assay

| Compound | inhibition at 1 µM (A549 [1]) | inhibition at 0.1 µM (A549 [2]) | inhibition at 1 µM (P388 [3]) | inhibition at 0.1 µM (P388 [4]) | inhibition at 0.01 µM (P388 [5]) | inhibition at 0.01 µM (A549 [6]) |
| --- | --- | --- | --- | --- | --- | --- |
| CC(=O)OC[C@@H](C)[C@@]1(O)[C@H](OC2OCC(O)C(OC3OCC(O)C(O)C3OC(C)c3ccccc3)C2OC(C)=O)CC2C3CC=C4C[C@@H](OC(C)=O)CC[C@]4(C)C3CC[C@@]21C (stereo not given in full) | 6.2% | 0.8% | 20.4% | 15.5% | 17.9% | – |
| CC(=O)OC1C(O[C@@H]2CC3C4CC=C5C[C@@H](O)CC[C@]5(C)C4CC[C@]3(C)[C@@]2(O)[C@H](C)C(=O)CCC(C)C)OCC(O)C1OC1OCC(O)C(O)C1OC(C)c1ccccc1 (stereo not given in full) | 53.8% | 29.5% | 66.7% | 35.4% | 15.5% | – |
| CC(=O)OC1C(O[C@H]2CC[C@@]3(C)C(=CCC4C3CC[C@@]3(C)C4C[C@@H](OC4OCC(O)C(OC5OCC(O)C(O)C5OC(C)c5ccccc5)C4OC(C)=O)[C@]3(O)[C@H](C)C(=O)CCC(C)C)C2)OCC(O)C1OC1OCC(O)C(O)C1OC(C)c1ccccc1 (stereo not given in full) | 80.9% | 6.7% | 90.7% | 52% | – | 0.7% |

Source: ChEMBL document CHEMBL1133911, “Synthesis of OSW-1 analogues and a dimer and their antitumor activities” (Bioorg Med Chem Lett, 2001)
